Laboratory results reported in patent publication US5545669A, “Anti-inflammatory compounds” (priority 1994, dated 1996).

Columns and labels:
[1] = tested on: PGE2 release by human monocytes; assay: Assay (f): stimulated eicosanoid release by human monocytes, Prostaglandin E2; format: cell-based; settings: Monocyte, 0.25 h, A23187 1 μM, 15 min
Experimental: (§1) Human Monocyte Isolation. Leukocyte-rich leukopaks obtained from Biological Specialties (Lansdale, Pa.) were collected from male volunteers who were not taking antiinflammatory drugs. Leukopaks were centrifuged (90×g for 15 min) twice to remove the platelet-rich plasma. The cell pellet was washed by centrifugation and resuspended in HBSS without Ca^2+ or Mg^2+. Histopaque 1077 was layered under the cell suspension and centrifuged at 400×g for 30 min to obtain the buffy coat. The interfacial buffy coat, containing monocytes and lymphocytes, was removed and saved. The buffy coat was washed twice with HBSS Without Ca^2+ or Mg^2+ by centrifugation. The cell pellet (4-6×10^8 cells/30 mls) was resuspended in iso-osmotic media (RPMI-1640, 10% heat inactivated fetal bovine serum (FBS), 0.2 mM L-glutamine, 2.5 mM HEPES) and layered over an equal volume of 46% Percol mixture (10X PBS/Percol; 9.25/0.75) and 54% iso-osmotic media and centrifuged for 30 min at 1000×g (Marshall and Roshak, Biochem. Cell Biol. 71: 331-339, 1993). The monocyte population located at the interface of the Percoll gradient was removed and washed twice in HBSS without Ca^2+ or Mg^2+.
(§2) Measurement of Stimuli-Induced Eicosanoid Release Monocytes (5×10^6 /ml) were incubated as a suspension in serum-free RPMI-1640 medium containing the vehicle DMSO (<1%) or drug for 30 min at 27° C. after which vehicle or stimuli was added for the indicated time. The stimulating agent is solubilized in DMSO and appropriate vehicle controls were included in all experiments. The amount of stimuli was chosen from the linear portion of a concentration versus product curve usually representing 60-80% maximal stimulation over the indicated incubation time at 37° C. (A23187, 1 μM,(15 min). The reaction was terminated by reduction of pH through addition of citric acid and centrifugation (10 min, 400×g, 4° C.). Cell viability was monitored before and after experiments using trypan blue exclusion. The cell-free media was decanted and stored at -70° C. until analyzed. Prostaglandin E2 and LTC4 were directly measured in cell-free media using enzyme immunoassay (EIA) kits purchased from Caymen Chemical Co. (Ann Arbor, Mich.). Sample or standard dilutions were made with appropriate media and analyzed in triplicate. Results were obtained by extrapolation from a standard curve prepared in the media and expressed as pg or ng/ml of sample.

[2] = tested on: LTC4 release by human monocytes; assay: Assay (f): stimulated eicosanoid release by human monocytes, LTC4; format: cell-based; settings: Monocyte, 0.25 h, A23187 1 μM, 15 min
Experimental: as §1, §2

[3] = tested on: TPA-induced Mouse Ear Inflammation; assay: Assay (g): TPA-induced mouse ear inflammation (ear edema and MPO); format: in vivo; settings: for TPA % change in edema / change in MPO for TPA model: topically administered, doses 0.2 (dexamethasone), 0.1 (scalaradial), 0.3 (WY 50,295), dose unit not given
Experimental: (§3) Male Balb/c inbred mice were obtained from Charle River Breeding Laboratories (Kingston, N.Y.). Within a single experiment mice (22-25 g) were age-matched. These in vivo experiments typically involved use of 5-6 animals/group.
TPA (12-0-tetradecanoylphorbol 13-acetate) (Sigma Chemical Company) in acetone (4 mg/20 ml) was applied to the inner and outer surfaces of the left ear of BALB/c male mice. The thickness of both ears was then measured with a dial micrometer (Mitutoyo, Japan) at both 2 and 4 hours after treatment, and the data expressed as the change in thickness (10^-3 cm) between treated and untreated ears. […] After measuring the edema, the inflammed left ears were removed and stored at -70° C. until they were assayed for MPO (myeloperoxidase) activity where appropriate.
(§4) On the day of the assay, partially thawed ear tissues were minced and then homogenized (10% w/v) with a Tissumizer homogenizer (Tekmar Co.) in 50 mM phosphate buffer (pH 6) containing 0.5% HTAB. The tissue homogenates were taken through three cycles of freeze-thaw, followed by brief sonication (10 sec). The method of Bradley et al. was used with modifications as described. […] Supernatant MPO activity was quantified kinetically (change in absorbance measured over 3 min, sampled at 15-sec intervals) using a Beckman DU-7 spectrophotometer and a Kinetics Analysis package (Beckman Instruments, Inc.). One unit of MPO activity is defined as that degrading one micromole of peroxide per minute at 25° C.
Statistical analysis was done using Student's "t" test.

[4] = tested on: Arachidonic acid induced ear inflammation; assay: Assay (h): Arachidonic acid induced ear inflammation (ear edema and MPO); format: in vivo, mouse; settings: for effect in the AA ear model (in words): at concentrations which were effective in the TPA ear model
Experimental: as §3, §4
Arachidonic acid is dissolved in acetone (ling/ear) to the left ear of BALB/c male mice. The thickness of both ears was measured with a constant pressure thickness guage 1 hour after treatment and the data expressed as the change in thickness between treated and untreated ears. Test compounds or vehicle are given at the time of AA applciation. The inflammatory cell infiltration is measured by MPO activity as described above in the TPA ear edema assay. After the edema measurements are made, the inflamed ears are removed and assayed for MPO activity.

[5] = topically administered, doses 0.2 (dexamethasone), 0.1 (scalaradial), 0.3 (WY 50,295), dose unit not given

SMILES | IC50 [1] [µM] | IC50 [2] [µM] | TPA % change in edema [3] [%] | effect in the AA ear model (in words) [4] | AA change in edema [4, 5] [%] | further results
O=C(O)c1ccccc1Oc1ccc(C(F)(F)F)cc1NS(=O)(=O)c1ccc2ccccc2c1 [Example 3, 2-[2-(2-Naphthylsulfonamido)-4-trifluoromethylphenoxy]benzoic acid] | > 30 | 2 | – | – | – | –
O=C(O)c1ccccc1Oc1ccccc1NS(=O)(=O)c1cc(C(F)(F)F)cc(C(F)(F)F)c1 [Example 10, 2-[2-[3,5-Bis(trifluoromethyl)phenylsulfonamido]phenoxy]benzoic acid] | > 100 | 1 | – | – | – | –
CCCCCCCCS(=O)(=O)Nc1ccccc1Oc1ccccc1C(=O)O [Example 11, 2-[2-(Octylsulfonamido)phenoxy]benzoic acid] | 10 to 20 | 1 | – | – | – | –
Cc1ccc(Oc2ccccc2C(=O)O)c(NS(=O)(=O)c2cc(C(F)(F)F)cc(C(F)(F)F)c2)c1 [Example 12, 2-[2-[3,5-bis(Trifluoromethyl)phenylsulfonamido]-4-methylphenoxy]benzoic acid] | > 30 | 1 | – | – | – | –
CCC(C)(C)c1ccc(Oc2ccc(C(F)(F)F)cc2NS(=O)(=O)c2cc(C(F)(F)F)cc(C(F)(F)F)c2)c(C(=O)O)c1 [Example 17, 2-[2-[3,5-Bis(trifluoromethyl)phenyl]sulfonamido-4-trifluoromethylphenoxy]-5-(1,1-dimethylpropyl)benzoic acid] | > 3 | 0.05 | – | – | – | –
CN(c1cc(C(F)(F)F)ccc1Oc1ccccc1C(=O)O)S(=O)(=O)c1cc(C(F)(F)F)cc(C(F)(F)F)c1 [Example 27, 2-[2-[3,5-bis(Trifluoromethyl)phenyl-N-methylsulfonamido]-4-trifluoromethylphenoxy]benzoic acid] | – | – | – | – | – | inhibition in the MPO assay ([3]; mouse ear inflammation, MPO): positive inhibition; response in the Edema aspects of this animal model ([3]; mouse ear inflammation, edema): not a significant response
C[C@H](C(=O)O)c1ccc2cc(OCc3ccc4ccccc4n3)ccc2c1 [WY 50,295] | – | – | -18 | strongly inhibits inflammation | -50 | change in MPO for TPA model [3]: -36
C[C@@H]1C[C@H]2[C@@H]3CCC4=CC(=O)C=C[C@]4(C)[C@@]3(F)[C@@H](O)C[C@]2(C)[C@@]1(O)C(=O)CO [dexamethasone] | – | – | -50 | little or no effect | -10 | change in MPO for TPA model [3]: -54; change in MPO for AA [4, 5]: 0
CC(=O)O[C@H]1C[C@@H]2[C@@]3(C)CCCC(C)(C)[C@@H]3CC[C@@]2(C)[C@@H]2CC=C(C=O)[C@H](C=O)[C@@]12C [scalaradial] | – | – | -46 | little or no effect | -11 | –
